{"source": "patent US20140271881A1", "about": "“ANTISEPTIC COMPOSITION” (priority 2011, published 2014)", "key": {"[1]": {"system": "acute traumatic or chronic wounds", "experiment": "Clinical study on 6 dogs with acute traumatic or chronic wounds with delayed healing", "assay_type": "in vivo", "procedure": "A clinical study of the effect of the combination used in the present invention was carried out on 6 dogs carrying inflammatory pathological conditions having led to acute traumatic or chronic wounds caused by lesion due to scratching with delayed healing.\nThe composition of the invention was applied in spray lotion form, twice a day, directly onto the wound to be treated. The results were observed 1 (D1), 2(D2), 3(D3), 5(D5) and 7(D7) days after the 1st application."}, "[2]": {"system": "traumatic or chronic wounds"}}, "data": [{"smiles": "Nc1ccc(S(=O)(=O)Nc2ncccn2)cc1", "note": "[sulfadiazine]", "values": [{"measurement": "Rapidity of response to the applications", "setting": "[1]; acute or chronic wounds, observed most commonly", "value": "such a rapid response is never observed"}, {"measurement": "Effectiveness of treatments carried out previously", "setting": "[1]; the 6 dogs, before the study", "value": "ineffective"}, {"measurement": "Effectiveness on healing", "setting": "[2]", "value": "not very effective"}]}]}
